Source: patent US11433057B2, “Method for improving or enhancing cognition” (VANDA PHARMACEUTICALS INC., priority 2016, dated 2022)

What was measured:
Format in all cases: in vivo, human
[1] = tested on: patients with findings consistent with mild AD or amnestic MCI; assay: CANTAB Choice Reaction Time (CRT), 4-week placebo-controlled study; details: 15 mg daily oral, study day 28
Description: (§1) The following example illustrates the methods of the invention, in which a 4-week, parallel-group, randomized, double-blind, placebo-controlled, adaptive proof of concept study of AQW051 at up to three dose levels for the treatment of patients with findings consistent with mild Alzheimer's disease (AD) or Mild Cognitive Impairment (amnestic MCI) was conducted in two stages.
(§2) To explore effects of AQW051 on other cognitive functions not assessed by the primary measures (CANTAB tests Pattern Recognition Memory (PRM), Choice Reaction Time (CRT), Graded Naming Test-Revised (GNT).
(§3) The investigational drug AQW51 was provided as either 0.5 mg, 5 mg, or 25 mg capsules. In stage I only 5 mg capsules were used. All groups received 15 mg of AQW051 daily for 4 weeks.
(§4) On Day 1, 8, 15, 22 and 28, the study drug was administered by study personnel and was taken orally with 240 ml of water after light breakfast. On all other study treatment days, patients self-administered the study medication in the morning after light breakfast.
(§5) The different CANTAB readouts were analyzed separately by rank analyses of covariance, including “treatment” and “stratum” (MCI, AD) as fixed effects and the corresponding baseline value as covariate. The comparison of interest was the contrast between active treatment and placebo; tests were performed to the one-sided 10% level without multiplicity-adjustment. Point and interval estimates were produced by the baseline-adjusted stratified Hodges-Lehmann method. In addition, sensitivity analyses were performed using standard analyses of covariance, to complement the aforementioned nonparametric methods. The items “errors at the 6 pattern stage” and “total trials adjusted” of the PAL task at day 28 played a key role at the interim analysis. At the end of stage 1, the conditional power of the study to reach an overall significant result in both these key endpoints at the final analysis was estimated by bootstrap methods. The different scores from the ADAS-Cog, QoL-AD, the DAD and the MMSE were analyzed using standard analyses of covariance. Safety and tolerability variables measures were analyzed by means of descriptive statistics.

[2] = tested on: patients with findings consistent with mild AD or amnestic MCI; assay: CANTAB Graded Naming Test-Revised (GNT), 4-week placebo-controlled study; details: 15 mg daily oral; study day 28; PD analysis set N=54; p=0.8191
Description: as §1, §2, §3
On Day 1, 8, 15, 22 and 28, the study drug was administered by study personnel and was taken orally with 240 ml of water after light breakfast. […]
(§6) The different CANTAB readouts were analyzed separately by rank analyses of covariance, including “treatment” and “stratum” (MCI, AD) as fixed effects and the corresponding baseline value as covariate. […] The different scores from the ADAS-Cog, QoL-AD, the DAD and the MMSE were analyzed using standard analyses of covariance. Safety and tolerability variables measures were analyzed by means of descriptive statistics.

[3] = tested on: patients with findings consistent with mild AD or amnestic MCI; assay: Adverse events, safety analysis set, 4-week placebo-controlled study; details: 15 mg daily oral, 4 weeks
Description: as §1
To explore the safety and tolerability of AQW051 in patients with findings consistent with mild AD or amnestic MCI.
as §3, §4, §5
Under one treatment, a subject with multiple occurrences of an adverse event is counted only once in the AE category. N=number of subject studied; n=number of subjects with at least 1 AE in the category. Only adverse events occurring at or after first drug intake are included.

[4] = tested on: patients with findings consistent with mild AD or amnestic MCI; assay: CANTAB Rapid Visual Information Processing (RVP), 4-week placebo-controlled study; details: 15 mg daily oral, study day 1
Description: as §1
(§7) To assess AQW051 as a cognitive enhancer, as measured by selected tests [Paired Associates Learning (PAL), Spatial Working Memory (SWM), Rapid Visual Information Processing (RVP)] from the Cambridge Neuropsychological Test Automated Battery (CANTAB) computerized cognitive test battery, in patients with findings consistent with mild AD or amnestic MCI.
The investigational drug AQW51 was provided as either 0.5 mg, 5 mg, or 25 mg capsules. In stage I only 5 mg capsules were used. All groups received 15 mg of AQW051 daily for 4 weeks. […]
as §6

[5] = tested on: patients with findings consistent with mild AD or amnestic MCI; assay: CANTAB Spatial Working Memory (SWM), 4-week placebo-controlled study; details: 15 mg daily oral, study day 28
Description: as §1, §7, §3, §4, §5

[6] = tested on: patients with findings consistent with mild AD or amnestic MCI; assay: CANTAB Pattern Recognition Memory (PRM), 4-week placebo-controlled study; details: 15 mg daily oral, study day 28, PD analysis set N=54
Description: as §1, §2, §3, §4, §5

[7] = tested on: patients with findings consistent with mild AD or amnestic MCI; assay: CANTAB Paired Associates Learning (PAL), 4-week placebo-controlled study; details: 15 mg daily oral, study day 1
Description: as §1, §7, §3, §4, §5

## Cc1ccc(-c2ccc(O[C@H]3CN4CCC3CC4)cn2)cc1 [AQW051, (R)-3-(6-p-tolyl-pyridin-3-yloxy)-1-aza-bicyclo[2.2.2]octane]
[1]; MCI patient only N=38, p=0.0918
  CRT Percent correct trials, Difference AQW051 15 mg vs. Placebo: 0.5
[1]; MCI patient only N=38, p=0.0966
  CRT Median latency, Difference, AQW051 15 mg vs. placebo: −23
[1]; PD analysis set N=54, p=0.3273
  CRT Median latency, Difference, AQW051 15 mg vs. placebo: −9.5
[1]; all patients N=54, p=0.0632
  CRT Percent correct trials, Difference AQW051 15 mg vs. Placebo: 0.5
[2]
  GNT Total correct, Difference, AQW051 15 mg vs. placebo: −1.5
[3]; AD N = 7
  Flatulence related to study drug, (%): 14.3%
  Patients with AE(s) related to study drug, (%): 14.3%
[3]; MCI N = 20
  Constipation related to study drug, (%): 5.0%
  Dysgraphia related to study drug, (%): 5.0%
  Headache related to study drug, (%): 10.0%
  Increased tendency to bruise related to study drug, (%): 5.0%
  Muscle spasms related to study drug, (%): 5.0%
  Pain in extremity related to study drug, (%): 5.0%
  Patients with AE(s) related to study drug, (%): 15.0%
  Pruritus related to study drug, (%): 5.0%
[3]; N = 27
  Bronchitis AE, (%) of subjects: (3.7) %
  Bronchitis AE, n of subjects: 1
  Chalazion AE, (%) of subjects: (3.7) %
  Chalazion AE, n of subjects: 1
  Constipation AE, (%) of subjects: (3.7) %
  Constipation AE, n of subjects: 1
  Dysgraphia AE, (%) of subjects: (3.7) %
  Dysgraphia AE, n of subjects: 1
  Ear and Labyrinth disorders AEs, (%) of subjects: (3.7) %
  Ear and Labyrinth disorders AEs, n of subjects: 1
  Epistaxis AE, (%) of subjects: (3.7) %
  Epistaxis AE, n of subjects: 1
  Eye disorders AEs, (%) of subjects: (3.7) %
  Eye disorders AEs, n of subjects: 1
  Flatulence AE, (%) of subjects: (3.7) %
  Flatulence AE, n of subjects: 1
  Gastrointestinal disorders AEs, (%) of subjects: (7.4) %
  Gastrointestinal disorders AEs, n of subjects: 2
  Headache AE, (%) of subjects: (7.4) %
  Headache AE, n of subjects: 2
  Hepatic function abnormal AE, (%) of subjects: (3.7) %
  Hepatic function abnormal AE, n of subjects: 1
  Hepatobiliary disorders AEs, (%) of subjects: (3.7) %
  Hepatobiliary disorders AEs, n of subjects: 1
  Increased tendency to bruise AE, (%) of subjects: (3.7) %
  Increased tendency to bruise AE, n of subjects: 1
  Infections and infestations AEs, (%) of subjects: (11.1) %
  Infections and infestations AEs, n of subjects: 3
  Laryngitis AE, (%) of subjects: (3.7) %
  Laryngitis AE, n of subjects: 1
  Muscle spasms AE, (%) of subjects: (3.7) %
  Muscle spasms AE, n of subjects: 1
  Musculoskeletal and connective tissue disorders AEs, (%) of subjects: (7.4) %
  Musculoskeletal and connective tissue disorders AEs, n of subjects: 2
  Nasopharyngitis AE, (%) of subjects: (3.7) %
  Nasopharyngitis AE, n of subjects: 1
  Nervous system disorders AEs, (%) of subjects: (7.4) %
  Nervous system disorders AEs, n of subjects: 2
  Pain in extremity AE, (%) of subjects: (7.4) %
  Pain in extremity AE, n of subjects: 2
  Patients with AEs, (%) of subjects: (40.7) %
  Patients with AEs, n of subjects: 11
  Pruritus AE, (%) of subjects: (3.7) %
  Pruritus AE, n of subjects: 1
  Respiratory, thoracic and mediastinal disorders AEs, (%) of subjects: (3.7) %
  Respiratory, thoracic and mediastinal disorders AEs, n of subjects: 1
  Skin and subcutaneous disorders AEs, (%) of subjects: (7.4) %
  Skin and subcutaneous disorders AEs, n of subjects: 2
  Skin lesion AE, (%) of subjects: (3.7) %
  Skin lesion AE, n of subjects: 1
  Tympanic membrane perforation AE, (%) of subjects: (3.7) %
  Tympanic membrane perforation AE, n of subjects: 1
[3]; Total N = 27
  Constipation related to study drug, (%): 3.7%
  Dysgraphia related to study drug, (%): 3.7%
  Flatulence related to study drug, (%): 3.7%
  Headache related to study drug, (%): 7.4%
  Increased tendency to bruise related to study drug, (%): 3.7%
  Muscle spasms related to study drug, (%): 3.7%
  Pain in extremity related to study drug, (%): 3.7%
  Patients with AE(s) related to study drug, (%): 14.8%
  Pruritus related to study drug, (%): 3.7%
[4]; MCI patient only N=38, p=0.0419
  RVP Mean latency, Difference AQW051 15 mg vs. Placebo: −22
[4]; all patients N=54, p=0.0292
  RVP Mean latency, Difference AQW051 15 mg vs. Placebo: −21.5
[5]; MCI patient only N=38, p=0.0290
  SWM Between errors (6 boxes), Difference AQW051 15 mg vs. Placebo: −2.5
[5]; MCI patient only N=38, p=0.0845
  SWM Between errors, Difference AQW051 15 mg vs. Placebo: −5
[5]; all patients N=54, p=0.0430
  SWM Between errors (6 boxes), Difference AQW051 15 mg vs. Placebo: −2
[5]; all patients N=54, p=0.0701
  SWM Between errors, Difference AQW051 15 mg vs. Placebo: −3.5
[5]; all patients N=54, p=0.0866
  SWM Between errors (4 boxes), Difference AQW051 15 mg vs. Placebo: −0.5
[6]; p=0.4244
  PRM Percent correct delayed, Difference, AQW051 15 mg vs. placebo: 0
[6]; p=0.7864
  PRM Mean correct latency delayed, Difference, AQW051 15 mg vs. placebo: 150 ms
[6]; p=0.8090
  PRM Percent correct immediate, Difference, AQW051 15 mg vs. placebo: −4
[6]; p=0.8328
  PRM Mean correct latency immediate, Difference, AQW051 15 mg vs. placebo: 198 ms
[7]; MCI patient only N=38, p=0.0239
  PAL of total errors (2 shapes adj), Difference AQW051 15 mg vs. Placebo: 0
[7]; MCI patient only N=38, p=0.0877
  PAL total trials (adj), Difference AQW051 15 mg vs. Placebo: −1.5
[7]; all patients N=54, p=0.0142
  PAL total errors (2 shapes adj), Difference AQW051 15 mg vs. Placebo: 0
[7]; all patients N=54, p=0.0840
  PAL total errors (6 shapes adj), Difference AQW051 15 mg vs. Placebo: −2
[7]; all patients N=54, p=0.0846
  PAL total trials (adj), Difference AQW051 15 mg vs. Placebo: −1
